Measurements taken from patent US10752612B2, “PLK4 inhibitors” (LUDWIG INSTITUTE FOR CANCER RESEARCH LTD, priority 2015, dated 2020).

Molecular target: T1, human Plk4 kinase domain (aa 2-275) (Homo sapiens, UniProt O00444)
T1 construct: purified 6×His-tagged human Plk4 kinase domain (aa 2-275); 6xHis; made in house; host or cells: E. coli
T1 sequence (O00444 2-275): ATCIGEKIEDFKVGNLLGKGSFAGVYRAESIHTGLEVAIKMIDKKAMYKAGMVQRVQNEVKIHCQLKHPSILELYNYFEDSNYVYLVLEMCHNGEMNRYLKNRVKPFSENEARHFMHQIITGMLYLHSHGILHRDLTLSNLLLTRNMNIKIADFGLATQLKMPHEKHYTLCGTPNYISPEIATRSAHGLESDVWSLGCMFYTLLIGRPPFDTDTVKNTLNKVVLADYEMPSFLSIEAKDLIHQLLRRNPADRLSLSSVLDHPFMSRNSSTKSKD
Assay: Plk4 kinase assay (ADP-Glo)
Assay type: biochemical
Details: Table 1
Experimental: Kinase assays. […] The Plk4 concentration in the final reaction was 2.5-10 nM with a final pH of 8.0. […] Reactions were allowed to proceed for 4-16 hours at 25° C. Detection was performed using ADP-Glo reagent (Promega), following manufacturer's instructions. Luminescence was measured on an Infinite M1000 plate reader (Tecan). Data were fit using Prism (GraphPad) and Kis were calculated from IC50 data using the Cheng and Prusoff equation (37) or the Copeland formalism for tight-binding inhibitors (38).

Row | SMILES | IC50
1 | COc1c(Nc2cc(C)[nH]n2)nc(Sc2ccc(NC(C)=O)cc2)nc1N1CC=CCC1 | < 1000 nM
2 | COc1c(Nc2cc(C)[nH]n2)nc(Sc2ccc(S(=O)(=O)Cc3cccc(C(=O)O)c3)cc2)nc1N1CCN(CCN(C)C)CC1 | < 1000 nM
3 | COc1c(Nc2cc(C)[nH]n2)nc(Sc2ccc(S(=O)(=O)C(C)(C)c3c(F)c(F)c(F)c(F)c3F)cc2F)nc1N1CCC(N(C)C)CC1 | < 1000 nM
4 | COc1c(Nc2cc(C)[nH]n2)nc(Sc2ccc(NC(C)=O)cc2)nc1N1CCC(CCN2CCOCC2)CC1 | < 1000 nM
5 | Cc1cc(Nc2nc(Sc3ccc(NC(=O)C4CC4)cc3)nc(C)c2C)n[nH]1 | < 1000 nM
6 | COc1c(Nc2cc(C)[nH]n2)nc(Sc2ccc(NS(C)(=O)=O)cc2)nc1N1CCN(CCN(C)C)CC1 | < 1000 nM
7 | COc1c(Nc2cc(C)[nH]n2)nc(Sc2ccc(S(=O)(=O)Cc3ccccc3C(N)=O)cc2)nc1N1CCN(CCN(C)C)CC1 | < 1000 nM
8 | CCOc1c(Nc2cc(C)[nH]n2)nc(Sc2ccc(NC(=O)C3CCCC3)cc2)nc1N1CCN(C(=O)CCN(C)C)CC1 | > 1000 nM
9 | Cc1cc(Nc2nc(Sc3ccc(NC(=O)C4CC4)cc3)nc(N3CCN(CCN(C)C)CC3)c2C)n[nH]1 | < 1000 nM
10 | CNC1CCN(c2nc(Sc3ccc(S(=O)(=O)C(C)(C)c4cccc([N+](=O)[O-])c4F)cc3F)nc(Nc3cc(C)[nH]n3)c2OC)CC1 | < 1000 nM
11 | CCOc1c(Nc2cc(C)[nH]n2)nc(Sc2ccc(NC(=O)C3CC3)cc2)nc1N(C)CC [drawing 128] | 100 to 1000 nM
12 | COc1c(NCCN(C)C)nc(Sc2ccc(NC(=O)C3CC3)cc2)nc1Nc1cc(C)[nH]n1 | 100 to 1000 nM
13 | COc1c(Nc2cc(C)[nH]n2)nc(Sc2ccc(NC(=O)C3CC3)cc2)nc1N1CCN(C2CCN(C)CC2)CC1 | < 1000 nM
14 | COc1c(Nc2cc(C)[nH]n2)nc(Sc2ccc(S(=O)(=O)Cc3cccc([N+](=O)[O-])c3F)cc2F)nc1N1CCC(NC(C)=O)CC1 | < 1000 nM
15 | CCN(CC)c1nc(Sc2ccc(NC(C)=O)cc2)nc(Nc2cc(C)[nH]n2)c1OC | < 1000 nM
16 | COc1c(Nc2cc(C)[nH]n2)nc(Sc2ccc(S(=O)(=O)CCO)cc2)nc1N1CCN(CCN(C)C)CC1 | < 1000 nM
17 | CCOc1c(Nc2cc(C)[nH]n2)nc(Sc2ccc(NC(=O)C3CC3)cc2)nc1N1CCN(CCOC)CC1 | 100 to 1000 nM
18 | COc1c(Nc2cc(C)[nH]n2)nc(Sc2ccc(S(=O)(=O)Cc3ccccc3)cc2)nc1N1CCN(CCN2CCC(O)CC2)CC1 | < 1000 nM
19 | CCOc1c(Nc2cc(C)[nH]n2)nc(Sc2ccc(NC(=O)C3CCCC3)cc2)nc1N1CCN(C(=O)CN(C)C)CC1 | 100 to 1000 nM
20 | COc1c(Nc2cc(C)[nH]n2)nc(Sc2ccc(CCc3cccc([N+](=O)[O-])c3F)cc2F)nc1N1CCOCC1 | < 1000 nM
21 | Cc1cc(Nc2nc(Sc3ccc(N)cc3)nc(N(C)C(C)C)c2C)n[nH]1 | < 1000 nM
22 | COc1c(Nc2cc(C)[nH]n2)nc(Sc2ccc(S(=O)(=O)Cc3cccc(Cl)c3F)cc2F)nc1N1CCOCC1 | < 1000 nM
23 | COc1c(Nc2cc(C)[nH]n2)nc(Sc2ccc(S(=O)(=O)C(C)(C)c3cccc([N+](=O)[O-])c3F)cc2F)nc1N1CCC(CC(=O)N(C)C)CC1 | < 1000 nM
24 | COc1c(Nc2cc(C)[nH]n2)nc(Sc2ccc(NC(C)=O)cc2)nc1C1=CCN(CCN(C)C)CC1 | < 1000 nM

Row | SMILES | IC50
25 | COc1c(Nc2cc(C)[nH]n2)nc(Sc2ccc(S(=O)(=O)Cc3ccccc3)cc2)nc1N1CCOC[C@@H]1C | < 1000 nM
26 | COc1c(Nc2ncc(C)s2)nc(Sc2ccc(NC(C)=O)cc2)nc1N1CCN(CCN(C)C)CC1 | < 1000 nM
27 | COc1c(Nc2cc(C)[nH]n2)nc(Sc2cccc(NC(C)=O)c2)nc1N1CCOCC1 | < 1000 nM
28 | CSc1nc(Nc2cc(C)[nH]n2)c(C)c(N(C)C(C)C)n1 | < 1000 nM
29 | COc1c(Nc2cc(C)[nH]n2)nc(Sc2ccc(NC(=O)C3CC3)cc2)nc1N1CCN(C(=O)CCN(C)C)CC1 | < 1000 nM
30 | COc1c(Nc2cc(C)[nH]n2)nc(Sc2ccc(S(=O)(=O)Cc3ccccc3C(=O)N(C)C)cc2)nc1N1CCN(CCN(C)C)CC1 | < 1000 nM
31 | CCOc1c(Nc2cc(C)[nH]n2)nc(Sc2ccc(NC(=O)C3CCCC3)cc2)nc1N1CCN(C2CCN(C)CC2)CC1 | 100 to 1000 nM
32 | CC(=O)Nc1ccc(Sc2nc(Nc3cc(C)[nH]n3)c(C)c(N3CCC(C)CC3)n2)cc1 | < 1000 nM
33 | COc1c(Nc2cc(C)[nH]n2)nc(Sc2ccc(NC(C)=O)cc2)nc1C1CCN(CCN2CCN(C)CC2)CC1 | < 1000 nM
34 | COc1c(Nc2cc(C)[nH]n2)nc(Sc2ccc(S(=O)(=O)Cc3cccc([N+](=O)[O-])c3F)cc2F)nc1N1CCOC[C@H]1C | < 1000 nM
35 | CNc1nc(Sc2ccc(NC(=O)C3CC3)cc2)nc(Nc2cc(C)[nH]n2)c1C | < 1000 nM
36 | CCOc1c(Nc2cc(C)[nH]n2)nc(Sc2ccc(NC(=O)C3CC3)cc2)nc1N(C)C [drawing 125] | < 1000 nM
37 | COc1c(Nc2cc(C)[nH]n2)nc(Sc2ccc(S(=O)(=O)Cc3cccc(C(F)(F)F)c3F)cc2F)nc1N1CCOCC1 | < 1000 nM
38 | COc1c(Nc2cc(C)[nH]n2)nc(Sc2ccc(S(=O)(=O)C(C)(C)c3cccc([N+](=O)[O-])c3F)cc2F)nc1N1CCOC[C@@H]1CO | < 1000 nM
39 | Cc1cc(Nc2nc(Sc3ccccc3)nc(N3CCOCC3)c2C)n[nH]1 | < 1000 nM
40 | COc1c(Nc2cc(C)[nH]n2)nc(Sc2ccc(S(=O)(=O)Cc3ccccc3)cc2)nc1C1CCN(CCN(C)C)CC1 | < 1000 nM
41 | Cc1ccc(Sc2nc(Nc3cc(C)[nH]n3)c(C)c(N3CCC(O)CC3)n2)cc1 | < 1000 nM
42 | COc1c(Nc2cc(C)[nH]n2)nc(Sc2ccc(S(=O)(=O)Cc3ccccc3)cc2)nc1N1CCN(CCN2CCC2)CC1 | < 1000 nM
43 | COc1c(Nc2cc(C)[nH]n2)nc(Sc2ccc(S(=O)(=O)Cc3ccccc3)cc2)nc1N1CCOC[C@H]1C | < 1000 nM
44 | COc1c(Nc2cc(C)[nH]n2)nc(Sc2ccc(S(=O)(=O)Cc3ccccc3)cc2)nc1N1CCC(CCN2CCN(C)CC2)CC1 | < 1000 nM
45 | COc1c(Nc2cc(C)[nH]n2)nc(Sc2ccc(S(=O)(=O)Cc3ccncc3)cc2)nc1N1CCN(CCN(C)C)CC1 | < 1000 nM
46 | COc1c(Nc2cc(C)[nH]n2)nc(Sc2ccc(S(=O)(=O)C3(c4cccc([N+](=O)[O-])c4F)CC3)cc2F)nc1N1CCC(CN(C)C)CC1 | < 1000 nM
47 | COc1c(Nc2cc(C)[nH]n2)nc(Sc2ccc(S(=O)(=O)Cc3cccc(C#N)c3F)cc2F)nc1N1CCN(CCN(C)C)CC1 | < 1000 nM
48 | COc1c(Nc2cc(C)[nH]n2)nc(Sc2ccc(S(=O)(=O)Cc3c(F)c(F)c(F)c(F)c3F)cc2F)nc1N1CCOCC1 | < 1000 nM

Row | SMILES | IC50
49 | COc1ccc(CS(=O)(=O)c2ccc(Sc3nc(Nc4cc(C)[nH]n4)c(OC)c(N4CCN(CCN(C)C)CC4)n3)cc2)cc1 | < 1000 nM
50 | COc1c(Nc2cc(C)[nH]n2)nc(Sc2ccc(S(=O)(=O)Cc3cccc(C(=O)N(C)C)c3)cc2)nc1N1CCN(CCN(C)C)CC1 | < 1000 nM
51 | CCS(=O)(=O)c1ccc(Sc2nc(Nc3cc(C)[nH]n3)c(OC)c(N3CCC(CCN(C)C)CC3)n2)cc1 | < 1000 nM
52 | CCS(=O)(=O)c1ccc(Sc2nc(Nc3cc(C)[nH]n3)c(OC)c(N3CCN(C)CC3)n2)cc1 | < 1000 nM
53 | COc1c(Nc2cc(C)[nH]n2)nc(Sc2ccc(NC(C)=O)cc2)nc1N1CCN(CCN2C3CCCC2CC3)CC1 | < 1000 nM
54 | Cc1cc(Nc2nc(Sc3ccc(NC(=O)C4CC4)cc3)nc(-n3ccnc3)c2C)n[nH]1 | 100 to 1000 nM
55 | COc1c(Nc2cc(C)[nH]n2)nc(Sc2ccc(NC(C)=O)cc2)nc1N1CCC(C(C)=O)CC1 | < 1000 nM
56 | COc1c(Nc2cc(C)[nH]n2)nc(Sc2ccc(S(=O)(=O)C(C)(C)c3c(F)c(F)cc(F)c3F)cc2F)nc1N1CC[C@@H](N(C)C)C1 | < 1000 nM
57 | CC(=O)Nc1ccc(Sc2nc(Nc3cc(C)[nH]n3)c(C)c(N3CCC(C(C)=O)CC3)n2)cc1 | < 1000 nM
58 | COc1c(Nc2cc(C)[nH]n2)nc(Sc2ccc(S(=O)(=O)Cc3cccc([N+](=O)[O-])c3)cc2)nc1N1C2CCC1COC2 | < 1000 nM
59 | COc1c(Nc2cc(C)[nH]n2)nc(Sc2ccc(S(=O)(=O)Cc3cccc(C(N)=O)c3)cc2)nc1N1CCN(CCN(C)C)CC1 | < 1000 nM
60 | COc1c(Nc2cc(C)[nH]n2)nc(Sc2ccc(S(=O)(=O)Cc3cccc([N+](=O)[O-])c3C#N)cc2)nc1N1CCN(CCN(C)C)CC1 | < 1000 nM
61 | COc1c(Nc2cc(C)[nH]n2)nc(Sc2ccc(S(=O)(=O)C(C)(C)c3cccc([N+](=O)[O-])c3F)cc2F)nc1N1CCN(C(C)=O)CC1 | < 1000 nM
62 | CCN(C)c1nc(Sc2ccc(NC(=O)C3CCCC3)cc2)nc(Nc2cc(C)[nH]n2)c1C | < 1000 nM
63 | COc1c(Nc2cc(C)[nH]n2)nc(Sc2ccc(NC(C)=O)cc2)nc1N(C)C(C)C | < 1000 nM
64 | CCOc1c(Nc2cc(C)[nH]n2)nc(Sc2ccc(NC(=O)C3CC3)cc2)nc1N(CC)CC [drawing 123] | < 1000 nM
65 | COc1c(Nc2cc(C)[nH]n2)nc(Sc2ccc(NC(C)=O)cc2)nc1N1CCN(CCN2CCN(C)CC2)CC1 | < 1000 nM
66 | Cc1cc(Nc2nc(Sc3ccccc3)nc(N(C)C(C)C)c2C)n[nH]1 | < 1000 nM
67 | CC(=O)Nc1ccc(Sc2nc(Nc3cc(C)[nH]n3)c(C)c(N3CCN(CCN(C)C)CC3)n2)cc1 | < 1000 nM
68 | CCS(=O)(=O)c1ccc(Sc2nc(Nc3cc(C)[nH]n3)c(OC)c(N3CCN(C)CC3)n2)c(Cl)c1 | < 1000 nM
69 | Cc1cc(Nc2nc(Sc3ccc(NC(=O)C4CCCC4)cc3)nc(N(C)C(C)C)c2C)n[nH]1 | < 1000 nM
70 | Cc1cc(Nc2nc(Sc3ccc(NC(=O)C4CC4)cc3)nc(N(C)C)c2C)n[nH]1 | < 1000 nM
71 | COc1c(Nc2cc(C)[nH]n2)nc(Sc2ccc(S(=O)(=O)C(C)(C)c3c(F)c(F)cc(F)c3F)cc2F)nc1N1CCN(CCN(C)C)CC1 | < 1000 nM
72 | CC(=O)Nc1ccc(Sc2nc(Nc3cc(C)[nH]n3)cc(N3CCCCC3)n2)cc1 | < 1000 nM
